Columns and labels:
eIF2α = assay: Phosphorylation in SKOV-3 cells (integrated stress response); format: cell-based, human
Description: (§1) FIG. 13A: Compound 5 induces the phosphorylation of eIF2α, confirming integrated stress response. p-eIF2αinduces ATF4 that suppresses 5′-cap dependent translation initiation, shown below. […] The levels of reporter proteins used in the translation assay (Pierce™ Renilla-Firefly Luciferase Dual Assay Kit; Thermo Scientific, Grand Island, NY) were normalized to the levels of intracellular FLUC-RLUC transcripts and are shown as percent of untreated control cells. RLU=Relative light units. 5′-cap dependent translation initiation was much less and occurred later. Values: Mean±SEM; *, p<0.05 and **, p<0.01 vs. control. […] Loading controls: β-actin and GADPH.

COT = assay: Protein levels in SKOV-3 cells; format: cell-based, human
Procedure: (§2) FIGS. 12A-12C and FIGS. 13A-13C illustrate key findings related to the mechanism of action of compound 5 against ovarian cancer. The studies shown here were performed in SKOV-3 human ovarian cancer cells. FIG. 12A: Left: Compound 5 increases the percentage of cells with acridine orange staining determined by flow cytometry (4% 4→38% after treatment with compound 5) and indicating the induction of autophagy. Right: Electron micrographs show morphological features of cells undergoing autophagy. Yellow arrowheads: vacuoles; white arrowheads: autophagosomes. […] N: nucleus; ER: endoplasmic reticulum with visible ribosomes. The left micrograph shown normal ER (circled) in a vehicle-treated cell. […] The latter finding is diagnostic of ER stress. Magnification: 6,800×. FIG. 12C: Compound 5 suppresses STAT3, mTOR and JNK activation by phosphorylation, as well as the levels of COT.

[1] = test system: MIA PaCa2 human pancreatic cancer cells; assay: In vitro synergy with tamoxifen; format: cell-based; conditions: tamoxifen prior to or concurrently with compound 5
Description: Additionally, synergy has been documented between compounds 5 and 6 individually and several chemotherapeutic and other agents, including but not limited to various camptothecins (e.g., camptothecin 11), resveratrol, gemcitabine, docetaxel, curcumin, progesterone, and methotrexate. Such synergy concerned the ability of these combinations to markedly suppress the growth of various human cancer cell lines originating in the pancreas, lung and other tissues. Furthermore, extremely efficacious was the combination of compounds 5, 6 and tamoxifen in completely suppressing the growth of K-ras mutant human pancreatic cancer cell lines.

RAW264 murine macrophage = assay: 24 hr growth inhibition of cell line; format: cell-based; conditions: Mus musculus, RAW264.7, 24 h
Procedure: (§3) The therapeutic efficacy of compounds 2, 5, and 6 was assessed in human and murine cell lines of varied tissue origin, and their 24 hr 50% inhibitory concentration was determined by following standard methodologies. Typical results are shown in the Table 5, indicating a broad anticancer effect.

HCT116 colon cancer = assay: 24 hr growth inhibition of cell line; format: cell-based; conditions: Homo sapiens, HCT-116, 24 h
Procedure: as §3

A549 lung cancer = assay: 24 hr growth inhibition of cell line; format: cell-based; conditions: Homo sapiens
Procedure: as §3

AGS gastric cancer = assay: 24 hr growth inhibition of cell line; format: cell-based; conditions: Homo sapiens
Procedure: as §3

PERK = assay: Activation by phosphorylation in SKOV-3 cells; format: cell-based, human; conditions: 1.5×IC50
Description: as §1

GCN2 = assay: Activation by phosphorylation in SKOV-3 cells; format: cell-based, human; conditions: 1.5×IC50
Description: as §1

[2] = test system: chicken embryo chorioallantoic membrane; assay: Chicken embryo chorioallantoic membrane assay; format: in vivo
VEGF-A = assay: Secreted VEGF in culture medium by ELISA; format: cell-based, human
Procedure: (§4) The effect of compounds 2, 5, and 6 on VEGF production was examined. For example, SKOV-3 ovarian cancer cells grown in culture were treated with compound 5 1×IC50 for up to 24 h. Secreted VEGF was assayed in the culture medium by ELISA (R&D Systems). […] For example, at 24 h, the reduction of secreted VEGF-A over the corresponding controls was: OVCAR3=100%, A2780=86%, A2780cis=100%, and A2780ADR=100%. Compound 5 suppressed VEGF-B by 90-92% compared to control. The anti-VEFG effect of Compound 5 is as strong in the drug-resistant as in the drug-sensitive cell lines.

VEGF-B = assay: Secreted VEGF in culture medium by ELISA; format: cell-based, human
Procedure: as §4

A2780cis xenografts = assay: Subcutaneous xenografts in nude mice, cisplatin resistant; format: in vivo; conditions: compound 5 15 mg/kg/day six days a week ip; cis-platinum 5.5 mg/kg one time a week ip
Procedure: Compound 6 was also efficacious against chemotherapy-resistant ovarian cancer. […] The effect of compound 6 in cisplatin resistant (A2780cis) and doxorubicin (Adriamycin) resistant (A2780ADR) tumors was studied. Briefly, each of these cell lines was subcutaneously inoculated into athymic nude mice and when the tumor size reached 100-200 mm^3, compound 6 150 mg/kg/day or its vehicle were given i.p. After 11 days of treatment, for the cisplatin-resistant tumors the tumor volume of the vehicle group was 2388±127 mm^3 and for compound 6 group 1032±108 mm^3 (mean±SEM; P<0.02); while for the doxorubicin-resistant tumors these values were: vehicle group=1369±337 mm^3 and compound 6 group=396±182 mm^3 (P<0.02).
To determine whether compound 5 is efficacious against chemotherapy-resistant ovarian cancer, three pairs of sensitive and resistant human ovarian cancer cell lines were grown as subcutaneous xenografts in nude mice and treated as summarized in FIG. 10. These cell lines were: A2780, sensitive to both cis-platinum and Adriamycin (doxorubicin); A2780cis, resistant to cis-platinum; A2780ADR, resistant to Adriamycin: HEY, sensitive to Taxol; HEY-T30, resistant to Taxol. The treatments administered were: vehicle control; compound 5, 15 mg/kg/day six days a week, ip; cis-platinum 5.5 mg/kg, one time a week ip; Adriamycin 3 mg/kg twice a week ip; and Taxol 20 mg/kg twice a week ip.

SKOV-3 ovarian cancer = assay: 24 hr growth inhibition of cell line; format: cell-based; conditions: Homo sapiens, SK-OV-3, 24 h
Procedure: as §3
Ovarian cancer cells were studied in greater detail using the following ovarian cancer cell lines: SKOV-3, OVCAR3, A2780 (and two cell lines derived from it, A2870cis that is resistant to cisplatin, and A2870ADR that is resistant to doxorubicin (Adriamycin)), and HEY (sensitive to paclitaxel (Taxol), and its derivative HEY-T30 that is Taxol-resistant). […]

[3] = test system: SKOV-3 human ovarian cancer cells; assay: Transmission electron microscopy, ER stress; format: cell-based; conditions: 1.5×IC50
Procedure: as §2

[4] = test system: 5′-cap dependent translation initiation; assay: Renilla-Firefly luciferase dual translation assay in SKOV-3 cells; format: cell-based, human
Description: as §1

IC50 (HCT116 colon cancer): 10 µM
IC50 (A549 lung cancer): 19 µM
IC50 (AGS gastric cancer): 14 µM
IC50 (SKOV-3 ovarian cancer): 9 µM
Structure (SMILES): CCN(CC)CCCCNC(=O)c1ccccc1SC/C=C(\C)CC/C=C(\C)CCC=C(C)C [Compound 5]
phosphorylation of eIF2α (eIF2α): induces
levels of COT (COT): suppresses
synergy with tamoxifen on growth of MIA PaCa2 cells [1]: synergizes
IC50 (RAW264 murine macrophage): 5 µM
PERK activation by phosphorylation (PERK): activated by phosphorylation
GCN2 activation by phosphorylation (GCN2): activated by phosphorylation
new vessels after treatment ([2]; control 58±4.9 (compound 5), 42.6±8.2 (compound 6)): 46±2.1
reduction of formation of new vessels ([2]; in vivo): 21%
reduction of secreted VEGF-A over controls (VEGF-A; A2780, 24 h): 86%
reduction of secreted VEGF-A over controls (VEGF-A; A2780ADR, 24 h): 100%
reduction of secreted VEGF-A over controls (VEGF-A; A2780cis, 24 h): 100%
reduction of secreted VEGF-A over controls (VEGF-A; OVCAR3, 24 h): 100%
suppression of secreted VEGF-A levels (VEGF-A; SKOV-3, 1×IC50, 6 hr): 80%
suppression of secreted VEGF-A levels (VEGF-A; SKOV-3, 1×IC50, 24 hr): 100%
suppression of VEGF-B compared to control (VEGF-B): 90-92%
growth of platinum-resistant xenografts (A2780cis xenografts): as efficacious as in the platinum sensitive xenografts
endoplasmic reticulum (ER) stress [3]: induction of endoplasmic reticulum (ER) stress
5′-cap dependent translation initiation [4]: suppresses predominantly

Reference: patent US12599599B2, “Anti-inflammatory, anti-cancer, and anti-angiogenic compounds, pharmaceutical compositions, and methods of making and using thereof” (MEDICON PHARMACEUTICALS, INC., priority 2017, dated 2026)
